From ChEMBL document CHEMBL4813951 (Eur J Med Chem, 2021)
Calls of active or inactive are those of the source. No cut-off for these calls is given here.

How the values were obtained:
Histamine H1 receptor = Histamine H1 receptor (Homo sapiens, UniProt P35367); assay: Displacement of [3H]mepyramine from human histamine H1 receptor expressed in sf9 insect cell membranes co-expressing RGS4 incubated for 60 mins by microbeta scintillation counting method; set-up: species or system Membrane
Histamine H2 receptor [1] = target: T1, Histamine H2 receptor (Homo sapiens, UniProt P25021); assay: Displacement of [3H]UR-DE257 from human histamine H2 receptor expressed in sf9 insect cell membranes co-expressing GSalphaS incubated for 60 mins by microbeta scintillation counting method; set-up: species or system Membrane
Histamine H3 receptor = Histamine H3 receptor (Homo sapiens, UniProt Q9Y5N1); assay: Displacement of [3H]UR-P129 from human histamine H3 receptor expressed in sf9 insect cell membranes co-expressing Galphai2/Gbeta1gamma2 incubated for 60 mins by microbeta scintillation counting method; set-up: species or system Membrane
Histamine H2 receptor [2] = target: T1, Histamine H2 receptor; assay: Agonist activity at human histamine receptor expressed in sf9 insect cell membranes co-exprssing GsalphaS incubated for 90 mins [35S]GTPgammaS binding based microbeta scintillation counting analysis; format: functional, Membrane
Histamine H2 receptor [3] = target: T1, Histamine H2 receptor; assay: Agonist activity at human histamine H2 receptor expressed in HEK293T cells co-expressing ELucC by beta arrestin2 recruitment assay; format: functional, cell-based
Histamine H2 receptor [4] = target: T1, Histamine H2 receptor; assay: Agonist activity at human histamine H2 receptor expressed in HEK293T cells co-expressing ELucC assessed as intrinsic activity at >= 30 uM by beta arrestin2 recruitment assay relative to histamine; format: functional, cell-based; details: filed as agonist, dose microM >=30
D(2) dopamine receptor [5] = target: T2, D(2) dopamine receptor (Homo sapiens, UniProt P14416); assay: Displacement of [3H]N-methylspiperone from human D2L receptor expressed in HEK293T cells co-expressing CRE-Luc incubated for 60 mins by microbeta scintillation counting method; format: cell-based
D(3) dopamine receptor [6] = target: T3, D(3) dopamine receptor (Homo sapiens, UniProt P35462); assay: Displacement of [3H]N-methylspiperone from human D3 receptor expressed in HEK293T cells co-expressing CRE-Luc incubated for 60 mins by microbeta scintillation counting method; format: cell-based
D(2) dopamine receptor [7] = target: T2, D(2) dopamine receptor; format: functional, cell-based, HEK293T
D(3) dopamine receptor [8] = target: T3, D(3) dopamine receptor; assay: Agonist activity at […] expressed in HEK293T cells co-expressing ELucC by beta arrestin2 recruitment assay; format: functional, cell-based
Histamine H2 receptor [9] = target: T1, Histamine H2 receptor; assay: Agonist activity at human histamine H2 receptor expressed in sf9 insect cell membranes co-exprssing GsalphaS assessed as intrinsic activity at >=30 uM incubated for 90 mins [35S]GTPgammaS binding based microbeta scintillation counting analysis relative to histamine; format: functional; details: Membrane, filed as agonist, dose microM >=30, time 90.0 min
Histamine H4 receptor = Histamine H4 receptor (Homo sapiens, UniProt Q9H3N8)
Histamine H2 receptor [10] = target: Histamine H2 receptor (Cavia porcellus, UniProt P47747); assay: (§1) Agonist activity at guinea pig right atrium histamine H2 receptor assessed as increase in heart rate incubated for 30 mins in presence of cimetidine; format: functional, tissue-based, Right cardiac atrium
[11] = target: Histamine H2 receptor (Cavia porcellus) (UniProt P47747); assay: Agonist activity at guinea pig right atrium histamine H2 receptor assessed as intrinsic activity incubated for 30 mins in presence of cimetidine relative to histamine; format: functional, tissue-based; details: Right cardiac atrium, filed as agonist
[12] = Dissociation constant, pKa of compound in NaOH; format: physicochemical; details: NaOH solution
[13] = target: Histamine H2 receptor (Cavia porcellus) (UniProt P47747); assay: as §1; format: functional, tissue-based; details: Right cardiac atrium
Histamine H2 receptor [14] = target: T1, Histamine H2 receptor; details: Sf9, Membrane, filed as agonist, time 90.0 min
[15] = Dissociation constant, pKa of compound in aqueous solution; format: physicochemical
[16] = Dissociation constant, pKa of compound in aqueous solution in presence of HCL; format: physicochemical; details: aqueous solution with HCl
[17] = Dissociation constant, pKa of compound in aqueous solution in presence of EtOH by spectrometric method; details: aqueous solution with EtOH
[18] = Dissociation constant, pKa1 of compound in HCL or HCL salt; format: physicochemical; details: HCl or HCl salt solution
[19] = Dissociation constant, pKa2 of compound in HCL or HCL salt; format: physicochemical; details: HCl or HCl salt solution

Chain of Histamine H4 receptor (Q9H3N8 whole entry): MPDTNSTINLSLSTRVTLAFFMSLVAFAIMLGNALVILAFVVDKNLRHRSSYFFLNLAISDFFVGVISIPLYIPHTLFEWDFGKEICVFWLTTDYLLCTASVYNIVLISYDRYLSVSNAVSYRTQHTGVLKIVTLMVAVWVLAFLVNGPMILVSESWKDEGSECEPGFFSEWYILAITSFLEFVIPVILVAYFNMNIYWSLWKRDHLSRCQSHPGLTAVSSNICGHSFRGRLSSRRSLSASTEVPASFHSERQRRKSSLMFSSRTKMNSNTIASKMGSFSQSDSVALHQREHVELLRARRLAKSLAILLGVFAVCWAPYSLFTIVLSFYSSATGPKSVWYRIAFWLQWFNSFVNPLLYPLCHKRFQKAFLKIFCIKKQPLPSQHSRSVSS
Chain of Histamine H3 receptor (Q9Y5N1 whole entry): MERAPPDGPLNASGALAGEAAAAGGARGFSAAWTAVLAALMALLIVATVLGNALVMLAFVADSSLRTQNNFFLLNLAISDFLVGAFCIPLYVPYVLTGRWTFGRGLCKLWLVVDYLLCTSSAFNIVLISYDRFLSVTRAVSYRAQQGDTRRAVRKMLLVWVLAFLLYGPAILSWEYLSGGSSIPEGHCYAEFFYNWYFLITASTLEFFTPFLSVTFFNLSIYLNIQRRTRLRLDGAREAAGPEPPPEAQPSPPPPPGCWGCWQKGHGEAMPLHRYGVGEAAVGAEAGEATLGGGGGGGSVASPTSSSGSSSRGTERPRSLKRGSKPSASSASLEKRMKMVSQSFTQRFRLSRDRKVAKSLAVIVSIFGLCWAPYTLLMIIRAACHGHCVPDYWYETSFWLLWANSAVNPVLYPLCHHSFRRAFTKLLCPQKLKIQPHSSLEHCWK
T1 sequence (P25021 whole entry): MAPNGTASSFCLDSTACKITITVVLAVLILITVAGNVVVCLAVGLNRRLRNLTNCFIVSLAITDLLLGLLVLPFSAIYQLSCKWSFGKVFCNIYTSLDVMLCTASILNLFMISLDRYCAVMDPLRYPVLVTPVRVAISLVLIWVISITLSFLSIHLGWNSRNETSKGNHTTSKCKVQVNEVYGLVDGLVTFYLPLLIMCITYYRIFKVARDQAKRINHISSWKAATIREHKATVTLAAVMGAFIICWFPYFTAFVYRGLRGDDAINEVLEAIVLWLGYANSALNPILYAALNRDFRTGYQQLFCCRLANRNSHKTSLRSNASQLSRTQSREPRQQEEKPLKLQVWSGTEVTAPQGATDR
Chain of Histamine H1 receptor (P35367 whole entry): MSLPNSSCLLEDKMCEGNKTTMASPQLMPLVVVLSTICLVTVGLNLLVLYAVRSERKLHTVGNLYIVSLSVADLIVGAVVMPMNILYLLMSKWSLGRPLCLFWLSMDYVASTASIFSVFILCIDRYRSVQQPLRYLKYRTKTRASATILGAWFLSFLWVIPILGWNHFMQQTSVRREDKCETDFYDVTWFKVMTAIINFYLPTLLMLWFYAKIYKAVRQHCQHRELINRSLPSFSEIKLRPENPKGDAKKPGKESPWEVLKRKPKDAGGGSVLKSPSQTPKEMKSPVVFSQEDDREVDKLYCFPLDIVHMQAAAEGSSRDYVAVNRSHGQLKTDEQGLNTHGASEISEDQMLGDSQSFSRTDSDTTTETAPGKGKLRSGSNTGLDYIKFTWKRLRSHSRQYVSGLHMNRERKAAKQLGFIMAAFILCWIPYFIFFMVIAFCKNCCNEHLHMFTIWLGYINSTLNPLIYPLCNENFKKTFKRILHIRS
Chain of Histamine H2 receptor (Cavia porcellus) (P47747 whole entry): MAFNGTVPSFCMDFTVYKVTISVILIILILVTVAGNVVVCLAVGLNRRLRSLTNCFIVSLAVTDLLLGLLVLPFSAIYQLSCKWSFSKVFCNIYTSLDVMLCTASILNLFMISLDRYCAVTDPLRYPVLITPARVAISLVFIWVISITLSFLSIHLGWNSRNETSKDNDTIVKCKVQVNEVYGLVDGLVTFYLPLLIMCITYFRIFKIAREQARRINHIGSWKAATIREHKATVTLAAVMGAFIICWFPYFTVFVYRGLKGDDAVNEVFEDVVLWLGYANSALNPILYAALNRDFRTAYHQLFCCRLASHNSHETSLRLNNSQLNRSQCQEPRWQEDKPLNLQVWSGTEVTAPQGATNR
Chain of Histamine H2 receptor (Cavia porcellus, UniProt P47747) (P47747 whole entry): as above
T3 sequence (P35462 whole entry): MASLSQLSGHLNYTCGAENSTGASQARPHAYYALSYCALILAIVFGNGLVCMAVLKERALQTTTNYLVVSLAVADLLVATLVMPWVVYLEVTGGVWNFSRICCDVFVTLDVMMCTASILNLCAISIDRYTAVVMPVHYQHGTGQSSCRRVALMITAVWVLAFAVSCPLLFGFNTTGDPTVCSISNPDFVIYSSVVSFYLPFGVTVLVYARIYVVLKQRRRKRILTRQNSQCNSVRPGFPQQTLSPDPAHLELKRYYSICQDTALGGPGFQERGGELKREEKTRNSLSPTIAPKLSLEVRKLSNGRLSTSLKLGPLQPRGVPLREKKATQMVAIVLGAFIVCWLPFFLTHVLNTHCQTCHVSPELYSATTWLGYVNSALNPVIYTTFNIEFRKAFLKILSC
T2 sequence (P14416 whole entry): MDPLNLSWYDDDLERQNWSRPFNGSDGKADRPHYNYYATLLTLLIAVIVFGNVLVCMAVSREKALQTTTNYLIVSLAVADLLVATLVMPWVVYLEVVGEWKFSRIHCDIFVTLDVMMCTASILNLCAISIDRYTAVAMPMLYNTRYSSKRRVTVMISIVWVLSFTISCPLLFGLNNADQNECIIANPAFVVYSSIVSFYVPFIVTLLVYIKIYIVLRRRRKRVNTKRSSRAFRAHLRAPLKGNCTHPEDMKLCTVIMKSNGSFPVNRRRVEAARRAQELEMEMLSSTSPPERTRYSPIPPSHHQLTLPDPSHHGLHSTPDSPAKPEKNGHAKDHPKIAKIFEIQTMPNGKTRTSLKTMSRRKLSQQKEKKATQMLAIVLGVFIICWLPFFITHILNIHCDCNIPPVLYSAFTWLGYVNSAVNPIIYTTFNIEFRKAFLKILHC

Structure (SMILES) | Ki (Histamine H1 receptor) | Ki (Histamine H2 receptor [1]) | Ki (Histamine H3 receptor) | EC50 (Histamine H2 receptor [2]) | EC50 (Histamine H2 receptor [3]) | Ki (D(2) dopamine receptor [5]) | Ki (D(3) dopamine receptor [6]) | EC50 (D(2) dopamine receptor [7]) | EC50 (D(3) dopamine receptor [8]) | Intrinsic activity (Histamine H2 receptor [9]) | Ki (Histamine H4 receptor) | also measured
Cc1nc(N)sc1CCCN/C(N)=N/C(=O)NCC(C)C1CCCCC1 (stereo unspecified) | 2340 nM | 39.8 nM | 10000 nM | 21.9 nM | 224 nM | 263 nM | 43.7 nM | 3240 nM | 263 nM | 0.65 | 1910 nM | Intrinsic activity (Histamine H2 receptor [4]): 0.4
CCCCCNC(=O)/N=C(\N)NCCCc1sc(N)nc1C | 10700 nM | 4.47 nM | 10500 nM | – | 178 nM | 447 nM | – | 1050 nM | – | – | 4270 nM | EC50 (Histamine H2 receptor [10]): 5.75 nM
CCCCCCNC(=O)/N=C(\N)NCCCc1sc(N)nc1C | 7760 nM | 28.8 nM | 5620 nM | 38.9 nM | 85.1 nM | 562 nM | 14.1 nM | 1740 nM | 23.4 nM | 0.6 | 8130 nM | EC50 (Histamine H2 receptor [10]): 15.8 nM; Intrinsic activity [11]: 0.95
CCCNC(=O)/N=C(\N)NCC | – | – | – | – | – | – | – | – | – | – | – | pKa [12]: 8.31
Cc1nc(N)sc1CCCN/C(N)=N/C(=O)NCC(C)c1ccc(C(C)C)cc1 (stereo unspecified) | 4900 nM | 148 nM | 7940 nM | 34.7 nM | 282 nM | – | – | – | – | 0.59 | 2630 nM | Intrinsic activity (Histamine H2 receptor [4]): 0.25
Cc1nc(N)sc1CCCN/C(N)=N/C(=S)NCC(c1ccccc1)c1ccccc1 | 44700 nM | 1450 nM | 46800 nM | – | – | – | – | – | – | – | 21400 nM | pEC50 [13]: inactive
CCC(CNC(=O)/N=C(\N)NCCCc1sc(N)nc1C)c1ccccc1 (stereo unspecified) | 7940 nM | 77.6 nM | 16600 nM | 28.8 nM | 269 nM | – | 64.6 nM | – | 40.7 nM | – | 6760 nM | –
Cc1nc(N)sc1CCCN/C(N)=N/C(=O)NC(C)c1ccco1 (stereo unspecified) | 45700 nM | 31.6 nM | 43700 nM | – | 234 nM | 1700 nM | 17.4 nM | 1070 nM | 102 nM | – | 45700 nM | EC50 (Histamine H2 receptor [10]): 9.77 nM; Intrinsic activity [11]: 1
Cc1nc(N)sc1CCCN/C(N)=N/C(=O)NCC(c1ccccc1)C(C)C (stereo unspecified) | 5890 nM | 102 nM | 11700 nM | 30.9 nM | 158 nM | – | – | – | – | 0.52 | 5890 nM | Intrinsic activity (Histamine H2 receptor [4]): 0.11
C[C@@H](NC(=O)/N=C(\N)NCCCc1ccccc1)c1ccccc1 | – | – | – | – | – | – | – | – | – | – | – | pKa [12]: 7.96
Cc1nc(N)sc1CCCN/C(N)=N/C(=O)NCc1ccccc1 | 6170 nM | 69.2 nM | 19500 nM | 28.8 nM | 100 nM | 603 nM | 45.7 nM | 1660 nM | 33.9 nM | 0.91 | 19100 nM | –
N/C(=N\C(=O)NC1CCCCC1)Nc1cccc(-c2csc(N)n2)c1 | – | 4470 nM | – | – | – | – | – | – | – | – | 13500 nM | pKb (Histamine H2 receptor [14]): 5.4
CCCCCCNC(=O)/N=C(\N)Nc1cccc(-c2csc(N)n2)c1 | – | 692 nM | 11000 nM | – | – | 2510 nM | 1290 nM | – | – | – | 9550 nM | pKb (Histamine H2 receptor [14]): 6.14
CCCNC(=O)/N=C(\N)Nc1cccc(-c2csc(N)n2)c1 | – | 5250 nM | – | – | – | – | – | – | – | – | > 100000 nM | pKb (Histamine H2 receptor [14]): 4.91
Cc1nc(N)sc1CCCN/C(N)=N/C(=O)NCC(C)CCc1ccccc1 (stereo unspecified) | 1350 nM | 63.1 nM | 9120 nM | 29.5 nM | 355 nM | 355 nM | 45.7 nM | 5370 nM | 891 nM | 0.69 | 3240 nM | Intrinsic activity (Histamine H2 receptor [4]): 0.2
Cc1csc(N)n1 | – | – | – | – | – | – | – | – | – | – | – | pKa [12]: 5.77; pKa [15]: 5.95; pKa [16]: 4.64
CCCCCCNC(=O)/N=C(\N)NC1CCc2nc(N)sc2C1 (stereo unspecified) | 1950 nM | 1120 nM | 1510 nM | 148 nM | – | 1260 nM | 1260 nM | – | – | 0.16 | 16600 nM | –
Cc1nc(N)sc1CCCN/C(N)=N/C(=S)N[C@H](C)c1ccccc1 | 110000 nM | 115 nM | 64600 nM | – | 372 nM | 1170 nM | 60.3 nM | 1510 nM | 166 nM | – | 26900 nM | EC50 (Histamine H2 receptor [10]): 89.1 nM; Intrinsic activity [11]: 0.87
Cc1nc(N)sc1C | – | – | – | – | – | – | – | – | – | – | – | pKa [12]: 6.28; pKa [17]: 6.29
N/C(=N\C(=O)NCc1ccccc1)NC1CCc2nc(N)sc2C1 (stereo unspecified) | 1200 nM | 513 nM | 3310 nM | 214 nM | 4370 nM | 550 nM | 5010 nM | – | – | 0.53 | 30200 nM | –
N/C(=N\C(=O)Nc1ccccc1)Nc1cccc(-c2csc(N)n2)c1 | – | 372000 nM | – | – | – | – | – | – | – | – | 64600 nM | pKb (Histamine H2 receptor [14]): 4.76
Cc1nc(N)sc1CCCN/C(N)=N/C(=O)N[C@H](C)c1ccccc1 | 8710 nM | 17.8 nM | 43700 nM | – | 45.7 nM | – | 6.17 nM | – | 15.5 nM | – | 13500 nM | pKa [18]: 4.68; pKa [19]: 7.47; EC50 (Histamine H2 receptor [10]): 7.59 nM
